≈ marks a conversion by molar mass, not a printed value. Where two headings read alike, the source gives them in different places.

For one test, the system named is Helicobacter pylori. The experiment in a line: MIC against Helicobacter pylori by two fold serial dilution in growth medium. The test is classed as cell-based. As to conditions: for Mean ratio pH 4:pH 7, first value: Strain 1 (Chloride: against first pH 7 value); for MIC, Strain 1 (pH 7): pH 7 (first value where two are given); for Mean ratio pH 4:pH 7, second value: Strain 2 (Chloride: Strain 1 against second pH 7 value); for Average Selectivity Ratio: (Sum of MIC values against all bacteria except H. pylori ÷ No. of MIC values) ÷ MIC value for H. pylori; for effect on the MIC of cobalt against H. pylori: weight ratio of 1:5 (cobalt:cysteine and/or methionine).

Another test concerns Klebsiella. The experiment in a line: MIC against Klebsiella. The test is classed as cell-based. As to conditions: Table 4.
The test system of test [1] is Pseudomonas aeruginosa. Nature of the test: MIC against Pseudomonas aeruginosa. Type of test: cell-based. As to conditions: Table 4.
In a further test the test system is Staphylococcus aureus. Nature of the test: MIC against Staphylococcus aureus. Type of test: cell-based. As to conditions: Table 4.
For the next test, the system named is Enterococcus faecalis. Nature of the test: MIC against Enterococcus faecalis. The test is classed as cell-based. The note with it: Table 4.
The test system of the next test is Echerichia coli. The experiment in a line: MIC against Echerichia coli. Type of test: cell-based. The note with it: Table 4.
For test [2], the system named is Pseudomonas aeruginosa. As to conditions: extrapolated from survival rates; protein broth then phosphate-buffered saline; Zhao et al 1998; cited from earlier work.
The test system of test [3] is Staphylococcus (aureus or Oxford Staph). The note with it: extrapolated from survival rates; protein broth then phosphate-buffered saline; Zhao et al 1998; cited from earlier work.
Another test concerns E. coli. As to conditions: extrapolated from survival rates; protein broth then phosphate-buffered saline; Zhao et al 1998; cited from earlier work.
Test [4] has as its system H. pylori. As to conditions: cited from earlier work.
In test [5] the test system is H. pylori. The note with it: H. pylori; cited from earlier work.
The mark [6] stands for this setting: STH broth, NCTC 11637 and seven clinical isolates.
The mark [7] stands for this setting: pH 4-7: pH of the media changes during the experiment from acidic start.

Procedure for Helicobacter pylori: Solutions of metal salts were prepared by dilution of the metal salt, optionally together with the ligand, in ultra-high-purity water. The pH values were adjusted to 7 with concentrated sodium hydroxide. The solutions were γ irradiated for 20 to 30 minutes for sterilisation, and then diluted ten fold in the bacterial growth medium to be used.
A gradient of concentration was obtained by two fold serial dilutions of the medium. The concentrations of metals were analysed by inductively coupled plasma spectrometry. Each dilution was inoculated with the different bacteria to be tested, by multi-point inoculating on the agar media, or suspending in the broth media.
The presence or absence of bacterial growth was reported within the concentration gradient and the minimum concentration of complex in the medium that inhibits totally the bacterial growth (MIC) was determined. The growth on an agar plate was detected by the presence of colonies, and by turbidity in the broth media. The bacteria were identified by the Gram morphology test. Helicobacter pylori growth was also confirmed by biochemical test on the catalase, urease and oxidase activity.

For the compound `Br` [Co bromide], the MIC in the test on Helicobacter pylori (Helicobacter pylori, pH 7, read-out: MIC, pH 7) lay within 1 to 4 µg/mL. In the test on Helicobacter pylori (Helicobacter pylori, pH 4-7: pH of the media changes during the experiment from acidic start, read-out: MIC, pH 4-7), the MIC is 0.06 to 0.125 µg/mL. In the test with Helicobacter pylori, the “Mean ratio pH 4:pH 7, first value” amounted to 0.036; the “MIC, Strain 1 (pH 4)” value was below 0.04; the “MIC, Strain 1 (pH 7)” value is listed as 1.12; the “Mean ratio pH 4:pH 7, second value” was found to be 0.02. In addition, in the test on Helicobacter pylori, the “MIC, Strain 2 (pH 4)” value amounted to 0.09. Besides, the “MIC, Strain 2 (pH 7)” value in the test on Helicobacter pylori (pH 7) is recorded as 4.49.
For the compound `O=C(O)CN(CCN(CC(=O)O)CC(=O)O)CC(=O)O` [EDTA, reference compound], the “effect of added ligand on the MIC / action of cobalt against H. pylori” value with Helicobacter pylori (ligand added to cobalt) was “inhibited the action of cobalt against H. pylori”.
`O=S(=O)([O-])[O-].[O]=[V+2]` [V^4+ (vanadyl sulfate), vanadyl sulfate, reference compound]: the “MIC” value in the test on Helicobacter pylori (setting [6]) is above 32 µg/mL.
The same measure, in the same setting: the same measure for `[O]=[Mo](=[O])=[O]` [Mo^6+ (molybdenum oxide), molybdenum oxide, reference compound]: above 32 µg/mL.
For the compound Vitamin B12 [reference compound], the “activity against H. pylori” value in the test on Helicobacter pylori (strongly bound cobalt complex) is given as “greatly reduced activity”.
Consider `O=C([O-])[O-].[Co+2]` [Co carbonate], for which, in the test on Helicobacter pylori, the “Mean ratio pH 4:pH 7, first value” was 0.048; the “MIC, Strain 1 (pH 4)” value amounted to 0.09; the “MIC, Strain 1 (pH 7)” value was 1.09; the “Mean ratio pH 4:pH 7, second value” is listed as 0.018. Besides, the “MIC, Strain 2 (pH 4)” value in the test with Helicobacter pylori was below 0.02. Besides, in the test on Helicobacter pylori (pH 7), the “MIC, Strain 2 (pH 7)” value worked out at 1.09 and the “MIC, pH 7” value is 0.125-1 mg/l. For the same compound, in the test on Helicobacter pylori (setting [7]), the “MIC, pH 4-7” value is 0.03-0.125 mg/l.
`[Cl][Fe]([Cl])[Cl]` [Fe^3+]: the MIC, Klebsiella with Klebsiella was above 32 µg/mL. This compound gave an MIC, Pseudomonas aeruginosa with Pseudomonas aeruginosa [1] above 32 µg/mL. The compound also came in with an MIC, Staphylococcus (aureus or Oxford Staph) with Staphylococcus aureus above 32 µg/mL. For the same compound, in the test on Helicobacter pylori, the “Average Selectivity Ratio” value amounted to 1.00. Further, the “MIC” value in the test on Helicobacter pylori (setting [6]) was above 32 µg/mL. Besides, in the test with Helicobacter pylori (Table 4), the “MIC, H. pylori” value is >32/>32 and the “MIC, H. pylori, first of two values” is >32/>32. The MIC, Ent faecalis against Enterococcus faecalis was above 32 µg/mL. Also, in the test on Echerichia coli, the MIC, E. coli was above 32 µg/mL.
As to `CC(=O)[O-].CC(=O)[O-].[Co+2]` [Co acetate], in the test on Helicobacter pylori, the “Mean ratio pH 4:pH 7, first value” came out at 0.054; the “MIC, Strain 1 (pH 4)” value was 0.11; the “MIC, Strain 1 (pH 7)” value is on record as 2.03; the “Mean ratio pH 4:pH 7, second value” is recorded as 0.11. Also, the “MIC, Strain 2 (pH 4)” value with Helicobacter pylori was determined as 0.11. In the test with Helicobacter pylori (pH 7), the “MIC, Strain 2 (pH 7)” value amounted to 1.01 and the “MIC, pH 7” value is 0.5-2 mg/l. Also, the “MIC, pH 4-7” value with Helicobacter pylori (setting [7]) worked out at 0.125 mg/l.
Consider `O=[N+]([O-])[O-].O=[N+]([O-])[O-].O=[N+]([O-])[O-].[Cr+3]` [Cr^2+ (chromium nitrate), chromium nitrate, reference compound], for which the “MIC” value in the test with Helicobacter pylori (setting [6]) is above 32 µg/mL.
Consider `[Ni+2]` [Ni^2+], for which the “MIC, Pseudomonas aeruginosa (footnote a)” value with Pseudomonas aeruginosa [2] is 22.89^a. In the test with Klebsiella, this compound displayed an MIC, Klebsiella above 32 µg/mL. Moreover, in [3], the “MIC, Staphylococcus (aureus or Oxford Staph) (footnote a)” value (“MIC, Staphylococcus … (footnote a)” for short) is reported as 22.89^a. This compound also returned an MIC, Pseudomonas aeruginosa in the test on Pseudomonas aeruginosa [1] above 32 µg/mL. This compound returned an MIC, Staphylococcus (aureus or Oxford Staph) with Staphylococcus aureus above 32 µg/mL. Besides, the “Average Selectivity Ratio” value with Helicobacter pylori stood at 0.89. Further, the “MIC” value against Helicobacter pylori (setting [6]) was above 32 µg/mL. Also, in the test with Helicobacter pylori (Table 4), the “MIC, H. pylori” value is recorded as >32/>32 and the “MIC, H. pylori, first of two values” is given as >32/>32. The compound also yielded an MIC, Ent faecalis with Enterococcus faecalis above 32 µg/mL. In the test with Echerichia coli, this compound displayed an MIC, E. coli above 32 µg/mL. The “MIC, E. coli (footnote a)” value in the test on E. coli is 22.89^a.
As for `O=P([O-])([O-])[O-].O=P([O-])([O-])[O-].[Co+2].[Co+2].[Co+2]` [Co phosphate], the “MIC, pH 4-7” value with Helicobacter pylori (setting [7]) was found to be 4 mg/l. The “MIC, pH 7” value in the test on Helicobacter pylori (pH 7) amounted to 0.8 mg/l.
Turning to `O=[N+]([O-])[O-].O=[N+]([O-])[O-].[Co+2]` [Co nitrate], in the test on Helicobacter pylori, the “Mean ratio pH 4:pH 7, first value” came to 0.07; the “MIC, Strain 1 (pH 4)” value came out at 0.05; the “MIC, Strain 1 (pH 7)” value was determined as 0.69; the “Mean ratio pH 4:pH 7, second value” is 0.08. Moreover, in the test on Helicobacter pylori, the “MIC, Strain 2 (pH 4)” value amounted to 0.055. Further, in the test on Helicobacter pylori (pH 7), the “MIC, Strain 2 (pH 7)” value is given as above 0.69 and the “MIC, pH 7” value is listed as 1 mg/l. Further, in the test with Helicobacter pylori (setting [7]), the “MIC, pH 4-7” value is 0.06 mg/l.
With `N[C@@H](CS)C(=O)O` [cysteine, reference compound], the “effect on the MIC of cobalt against H. pylori” value in the test with Helicobacter pylori is on record as “not to affect the MIC of cobalt against H. pylori”.
As to `CSCC[C@H](N)C(=O)O` [methionine, reference compound], the “effect on the MIC of cobalt against H. pylori” value in the test with Helicobacter pylori is recorded as “not to affect the MIC of cobalt against H. pylori”.
Consider `[OH][Co][OH]` [Co hydroxide], for which, in the test on Helicobacter pylori, the “Mean ratio pH 4:pH 7, first value” came to 0.058; the “MIC, Strain 1 (pH 4)” value was determined as 0.11; the “MIC, Strain 1 (pH 7)” value was determined as 1.9; the “Mean ratio pH 4:pH 7, second value” stood at 0.029. The “MIC, Strain 2 (pH 4)” value with Helicobacter pylori is reported as 0.11. Also, in the test with Helicobacter pylori (pH 7), the “MIC, Strain 2 (pH 7)” value turned out to be 3.80 and the “MIC, pH 7” value is listed as 2-4 mg/l. Besides, the “MIC, pH 4-7” value against Helicobacter pylori (setting [7]) was found to be 0.125 mg/l.
For `[Cl][Mn][Cl]` [Mn^2+], the MIC, Klebsiella against Klebsiella was above 32 µg/mL. Also, the MIC, Pseudomonas aeruginosa in the test with Pseudomonas aeruginosa [1] was above 32 µg/mL. The same compound displayed an MIC, Staphylococcus (aureus or Oxford Staph) against Staphylococcus aureus above 32 µg/mL. For the same compound, the “Average Selectivity Ratio” value with Helicobacter pylori turned out to be 1.00. Further, the “MIC” value in the test on Helicobacter pylori (setting [6]) is above 32 µg/mL. Also, in the test with Helicobacter pylori (Table 4), the “MIC, H. pylori” value is on record as >32/>32 and the “MIC, H. pylori, first of two values” was >32/>32. This compound registered an MIC, Ent faecalis against Enterococcus faecalis above 32 µg/mL. Besides, the MIC, E. coli in the test with Echerichia coli is above 32 µg/mL.
Consider `CC[C@H]1OC(=O)[C@H](C)[C@@H](O[C@H]2C[C@@](C)(OC)[C@@H](O)[C@H](C)O2)[C@H](C)[C@@H](O[C@@H]2O[C@H](C)C[C@H](N(C)C)[C@H]2O)[C@](C)(OC)C[C@@H](C)C(=O)[C@H](C)[C@@H](O)[C@]1(C)O` [clarithromycin], for which the eradication of infections result with H. pylori [4] (in combination with metronidazole) is “about 70%”; in the test on H. pylori [4] (monotherapy), “about 34%”; in the test on H. pylori [4] (triple therapy with a PPI and either metronidazole or amoxycillin), 85-95%. Also, the MIC50 with H. pylori [5] is 0.03 µg/mL (≈ 0.0401 µM).
For `[Cl][Cu][Cl]` [Cu^2+], the “MIC, Pseudomonas aeruginosa (footnote a)” value in the test with Pseudomonas aeruginosa [2] is 1.75^a. In the test with Klebsiella, this compound gave an MIC, Klebsiella above 32 µg/mL. Moreover, the “MIC, Staphylococcus … (footnote a)” value in test [3] is recorded as 17.15^a. In addition, the MIC, Pseudomonas aeruginosa against Pseudomonas aeruginosa [1] was above 32 µg/mL. This compound showed an MIC, Staphylococcus (aureus or Oxford Staph) in the test with Staphylococcus aureus above 32 µg/mL. In the test with Helicobacter pylori, the “Average Selectivity Ratio” value is 1.02. In addition, the “MIC” value in the test on Helicobacter pylori (setting [6]) fell in the range of 16 to 32 µg/mL. Besides, in the test with Helicobacter pylori (Table 4), the “MIC, H. pylori” value was 32 and the “MIC, H. pylori, first of two values” was found to be 16. Further, the MIC, H. pylori in the test with Helicobacter pylori (Table 4, main value) was determined as 24 µg/mL. This compound also gave an MIC, Ent faecalis against Enterococcus faecalis above 32 µg/mL. The compound further yielded an MIC, E. coli against Echerichia coli above 32 µg/mL. Besides, the “MIC, E. coli (footnote a)” value in the test on E. coli is listed as 17.15^a.
On to `O=[N+]([O-])[O-].O=[N+]([O-])[O-].O=[N+]([O-])[O-].[Bi+3]` [Bi^3+ (bismuth nitrate), bismuth nitrate, reference compound], for which the “MIC” value against Helicobacter pylori (setting [6]) lay within 4 to 8 µg/mL. In the test with Helicobacter pylori (Table 2 metals compared with cobalt (II)), the “action against H. pylori (in words)” value is “active, but only at much higher levels than cobalt (II)”.
As to `[Cl-].[Cl-].[Zn+2]` [Zn^2+], in the test with Pseudomonas aeruginosa [2], the “MIC, Pseudomonas aeruginosa (footnote a)” value was 1.7^a. The compound also had an MIC, Klebsiella in the test with Klebsiella above 32 µg/mL. Also, the “MIC, Staphylococcus … (footnote a)” value in test [3] was 17^a. Further, the MIC, Pseudomonas aeruginosa against Pseudomonas aeruginosa [1] is above 32 µg/mL. In addition, the MIC, Staphylococcus (aureus or Oxford Staph) in the test on Staphylococcus aureus is above 32 µg/mL. For the same compound, the “Average Selectivity Ratio” value in the test with Helicobacter pylori is recorded as 0.76. Also, in the test on Helicobacter pylori (setting [6]), the “MIC” value was above 32 µg/mL. In the test on Helicobacter pylori (Table 4), the “MIC, H. pylori” value is given as >32/32 and the “MIC, H. pylori, first of two values” is given as >32/32. In addition, the MIC, Ent faecalis against Enterococcus faecalis is above 32 µg/mL. The compound also yielded an MIC, E. coli in the test with Echerichia coli above 32 µg/mL. The “MIC, E. coli (footnote a)” value in the test on E. coli is reported as 17^a.

Source of the values: patent publication US7811609B2, “Use of metal compounds to treat gastrointestinal infections” (priority 2000, dated 2010).
